Measured values taken from paper PMC11858051, “PK/PD Analysis of High-Dose Daptomycin Use in the Treatment of Bone and Joint Infections: Data from a Real-World Setting” (Microorganisms, 2025).

Columns and labels:
[1] = C-reactive protein as surrogate efficacy marker during TDM; type: in vivo, human
Experimental: Therefore, we attempted to correlate the targeted AUC0–24h with CRP levels measured after treatment. The CRP was obtained at the time of diagnosis and at the end of treatment or between stages in two-stage exchange arthroplasty.

[2] = human, in vivo
Experimental: This is a retrospective, monocentric study, including adult patients with a suspected or documented diagnosis of Gram-positive BJI who received daptomycin and whose plasma concentrations were measured once the steady state was reached. The study was approved by the Institutional Review Board of University of Udine (Prot IRB: 266/2023). We included all patients who were hospitalized at our University Hospital from July 2022 to December 2023. Data were retrieved from the hospital’s electronic registry, selecting all TDM performed by the Clinical Pharmacology Institute of ASU FC in the time frame of interest and then identifying the analyses required by the orthopedic wards (see Figure 1).
The peak and trough concentrations of daptomycin were determined through blood samples collected 30 min after the drug infusion and before dosing, respectively, on day 3 of therapy, once steady state was achieved. The drug clearance was estimated as apparent clearance, calculated as the […].
Daptomycin concentrations were measured by a validated High-Performance Liquid Chromatography–Ultraviolet (HPLC-UV) method previously published, using Nexera-i 2040 LC, Shimadzu® (Shimadzu USA Manufacturing INC, Canby, OR, USA).

[3] = PK/PD target attainment at first TDM (eAUC0–24h and trough thresholds)
Experimental: All patients performed daptomycin TDM according to the clinical practice, and its daily area under the concentration–time curve (eAUC0–24h; including eAUC24–48h in case of other day administration, meaning when the drug dose was given every 48 h instead of every 24 h as indicated in the SmPC as the standard dose) was estimated according to the following Equation (1) reported in the literature [18, 19], based on daptomycin trough and peak plasma concentrations: (1) AUC0–24 h = 0.5 × t^′×Cmax +∫t^′infinityCmax ×e^−kel×(t)dt− ∫24infinityCmin ×e^−kel×(t)dt
For the analysis of the safety profile of daptomycin, we considered the main PK parameters expressing the overall exposure to the antibiotic and its property to be cleared, such as eAUC0–24h and the trough plasma concentrations, respectively. For the efficacy daptomycin PK/PD targets, we considered the main PK parameter indicating the daily exposure to daptomycin which is represented by the eAUC0–24h and we combined this with the pertinent PD parameter of interest of bacterial disease which is the Minimum Inhibitory Concentration (MIC) of the isolated pathogen.

[4] = single patient with CPK 1000 U/L

SMILES: CCCCCCCCCC(=O)N[C@@H](Cc1c[nH]c2ccccc12)C(=O)N[C@H](CC(N)=O)C(=O)N[C@@H](CC(=O)O)C(=O)N[C@@H]1C(=O)NCC(=O)N[C@@H](CCCN)C(=O)N[C@@H](CC(=O)O)C(=O)N[C@H](C)C(=O)N[C@@H](CC(=O)O)C(=O)NCC(=O)N[C@H](CO)C(=O)N[C@@H]([C@H](C)CC(=O)O)C(=O)N[C@@H](CC(=O)c2ccccc2N)C(=O)O[C@@H]1C [daptomycin, Daptomycin]
- median CRP during TDM ([1]; 155 measurements, median): 28.99 mg/L
- median CRP when eAUC0–24h >939 mg·h/L ([1]; aggressive eAUC0–24h group, Mann–Whitney p = 0.029 vs <939): 17.47 mg/L
- median CRP when eAUC0–24h < 939 mg·h/L ([1]; eAUC0–24h < 939 mg·h/L group): 40.60 mg/L
- estimated AUC0–24h, maximum value [2]: 2263 µg·h/mL
- estimated AUC0–24h, minimum value [2]: 395.7 µg·h/mL
- exposure in females compared with males (eAUC0–24h, trough, peak, clearance, also dose-adjusted) [2]: Females are overexposed to daptomycin compared with males
- median dose-adjusted eAUC0–24h (eAUC0–24h/D), BMI > 25 kg/m^2 [2]: 112.6
- median dose-adjusted eAUC0–24h (eAUC0–24h/D), BMI ≤ 25 kg/m^2 [2]: 89.58
- median eAUC between 24 and 48 h after dosing (eAUC24–48h), other day administration [2]: 339.8 µg·h/mL
- median eAUC within 24 h from dosing, other day administration [2]: 1060 µg·h/mL
- median estimated AUC0–24h [2]: 996.3 µg·h/mL
- median estimated drug clearance [2]: 12.2 mL/min
- cases with increase in absolute eosinophil count at follow-up (132 eosinophil count measurements at basal time and during TDM): 108 cases
- other adverse events (during therapy): No other adverse events were reported
- eAUC0–24h of the patient with high CPK [4]: 1051 µg·h/mL
- plasma peak concentration of the patient with high CPK [4]: 84.4 mg/L
- plasma trough concentration of the patient with high CPK [4]: 18.7 mg/L
- plasma CPK concentration reached in the one patient with high CPK (single patient, baseline 325 U/L): 1000 U/L
- patients not receiving adequate doses for the PK/PD efficacy and safety targets ([3]; dosing suggested in the SmPC): 68.8%
- patients underexposed (eAUC0–24h < 666 mg·h/L) ([3]; first TDM, 6 of 77 patients, doses according to SmPC): 7.8%
- patients with high eAUC0–24h to monitor (939–1174 mg·h/L) and trough <24.3 mg/L ([3]; first TDM, 16 of 77 patients): 20.8%
- patients with eAUC0–24h > 1174 mg·h/L ([3]; first TDM, 26 of 77 patients): 33.8%
- patients on target (eAUC0–24h 666–939 mg·h/L and trough < 24.3 mg/L) ([3]; first TDM, 27 of 77 patients): 35.1%
